# Experimental data published in patent publication US9969694B2, “N-(arylalkyl)-N′-pyrazolyl-urea, thiourea, guanidine and cyanoguanidine compounds as TrkA kinase inhibitors” (Array BioPharma Inc., priority 2012, dated 2018).
# Legend:
# Assay in all cases: Off-Target Kinase Profiling
# Format in all cases: biochemical
# Conditions in all cases: 10 μM; ATP near Km
# [1] = target: T1, ZAP-70 (Homo sapiens, UniProt P43403)
# T1 construct: purchased Millipore, Inc. (KinaseProfiler service)
# Experimental: (§1) Representative compounds of the invention (Examples 33 and 10) were tested for off-target kinase activity at a concentration of 10 μM by Millipore, Inc. in their KinaseProfiler™ service against all the kinases available in their full kinase panel. Compounds were run in duplicate at a concentration of ATP near the Km for each individual kinase according to Millipore's specifications. The results are shown in Table B. Data are reported as percent of control (POC) and are the average of the two replicates.
# [2] = target: T2, PDK1 (Homo sapiens, UniProt O15530)
# T2 construct: purchased Millipore, Inc. (KinaseProfiler service)
# Experimental: as §1
# [3] = target: T3, FGFR4 (Homo sapiens, UniProt P22455)
# T3 construct: purchased Millipore, Inc. (KinaseProfiler service)
# Experimental: as §1
# [4] = target: T4, MKK4_m (Mus musculus, UniProt P47809)
# T4 construct: purchased Millipore, Inc. (KinaseProfiler service)
# Experimental: as §1
# [5] = target: T5, BrSK1 (Homo sapiens, UniProt Q8TDC3)
# T5 construct: purchased Millipore (KinaseProfiler service)
# Experimental: as §1
# [6] = target: T6, MAP4K2 (Homo sapiens, UniProt Q12851)
# T6 construct: purchased Millipore, Inc. (KinaseProfiler service)
# Experimental: as §1
# [7] = target: T7, AKT2 (Homo sapiens, UniProt P31751)
# T7 construct: purchased Millipore (KinaseProfiler service)
# T7 sequence (P31751 whole entry): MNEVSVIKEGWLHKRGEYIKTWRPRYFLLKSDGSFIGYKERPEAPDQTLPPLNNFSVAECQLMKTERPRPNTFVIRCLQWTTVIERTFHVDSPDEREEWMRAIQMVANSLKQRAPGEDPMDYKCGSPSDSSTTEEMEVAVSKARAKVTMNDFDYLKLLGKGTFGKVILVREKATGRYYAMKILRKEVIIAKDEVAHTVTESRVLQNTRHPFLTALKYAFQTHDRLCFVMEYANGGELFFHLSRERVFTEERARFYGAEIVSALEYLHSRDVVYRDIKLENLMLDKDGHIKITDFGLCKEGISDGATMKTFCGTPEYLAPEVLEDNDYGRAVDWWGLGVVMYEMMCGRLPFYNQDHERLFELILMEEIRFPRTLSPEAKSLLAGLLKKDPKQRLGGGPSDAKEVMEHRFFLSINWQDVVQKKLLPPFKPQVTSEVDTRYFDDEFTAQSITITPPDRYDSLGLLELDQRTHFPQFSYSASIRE
# Experimental: as §1
# [8] = target: T8, CAMK2d (Homo sapiens, UniProt Q13557)
# T8 construct: purchased Millipore (KinaseProfiler service)
# Experimental: as §1
# [9] = target: T9, CDK2/cyclinE (Homo sapiens, UniProt P24941)
# T9 construct: purchased Millipore, Inc. (KinaseProfiler service)
# Experimental: as §1
# [10] = target: T10, CDK5/p25 (Homo sapiens, UniProt Q00535)
# T10 construct: purchased Millipore, Inc. (KinaseProfiler service)
# Experimental: as §1
# [11] = target: T11, MST1 (Homo sapiens, UniProt Q13043)
# T11 construct: purchased Millipore, Inc. (KinaseProfiler service)
# Experimental: as §1
# [12] = target: T12, IRR (Homo sapiens, UniProt P14616)
# T12 construct: purchased Millipore, Inc. (KinaseProfiler service)
# Experimental: as §1
# [13] = target: T13, SRPK2 (Homo sapiens, UniProt P78362)
# T13 construct: purchased Millipore, Inc. (KinaseProfiler service)
# Experimental: as §1
# [14] = target: T14, MAPKAP-K3 (Homo sapiens, UniProt Q16644)
# T14 construct: purchased Millipore, Inc. (KinaseProfiler service)
# Experimental: as §1
# [15] = target: T15, EphB3 (Homo sapiens, UniProt P54753)
# T15 construct: purchased Millipore, Inc. (KinaseProfiler service)
# Experimental: as §1
# [16] = target: T16, CK1gamma2 (Homo sapiens, UniProt P78368)
# T16 construct: purchased Millipore, Inc. (KinaseProfiler service)
# Experimental: as §1
# [17] = target: T17, SRC (Homo sapiens, UniProt P12931)
# T17 construct: purchased Millipore, Inc. (KinaseProfiler service)
# Experimental: as §1
# [18] = target: T18, TSSK2 (Homo sapiens, UniProt Q96PF2)
# T18 construct: purchased Millipore, Inc. (KinaseProfiler service)
# Experimental: as §1
# [19] = target: T19, MARK1 (Homo sapiens, UniProt Q9P0L2)
# T19 construct: purchased Millipore, Inc. (KinaseProfiler service)
# Experimental: as §1
# [20] = target: T20, PKCalpha (Homo sapiens, UniProt P17252)
# T20 construct: purchased Millipore, Inc. (KinaseProfiler service)
# Experimental: as §1
# [21] = target: T21, EphA5 (Homo sapiens, UniProt P54756)
# T21 construct: purchased Millipore, Inc. (KinaseProfiler service)
# Experimental: as §1
# [22] = target: T22, CDK3/cyclinE (Homo sapiens, UniProt Q00526)
# T22 construct: purchased Millipore, Inc. (KinaseProfiler service)
# Experimental: as §1
# [23] = target: T23, Rsk3 (Homo sapiens, UniProt Q15349)
# T23 construct: purchased Millipore, Inc. (KinaseProfiler service)
# T23 sequence (Q15349 whole entry): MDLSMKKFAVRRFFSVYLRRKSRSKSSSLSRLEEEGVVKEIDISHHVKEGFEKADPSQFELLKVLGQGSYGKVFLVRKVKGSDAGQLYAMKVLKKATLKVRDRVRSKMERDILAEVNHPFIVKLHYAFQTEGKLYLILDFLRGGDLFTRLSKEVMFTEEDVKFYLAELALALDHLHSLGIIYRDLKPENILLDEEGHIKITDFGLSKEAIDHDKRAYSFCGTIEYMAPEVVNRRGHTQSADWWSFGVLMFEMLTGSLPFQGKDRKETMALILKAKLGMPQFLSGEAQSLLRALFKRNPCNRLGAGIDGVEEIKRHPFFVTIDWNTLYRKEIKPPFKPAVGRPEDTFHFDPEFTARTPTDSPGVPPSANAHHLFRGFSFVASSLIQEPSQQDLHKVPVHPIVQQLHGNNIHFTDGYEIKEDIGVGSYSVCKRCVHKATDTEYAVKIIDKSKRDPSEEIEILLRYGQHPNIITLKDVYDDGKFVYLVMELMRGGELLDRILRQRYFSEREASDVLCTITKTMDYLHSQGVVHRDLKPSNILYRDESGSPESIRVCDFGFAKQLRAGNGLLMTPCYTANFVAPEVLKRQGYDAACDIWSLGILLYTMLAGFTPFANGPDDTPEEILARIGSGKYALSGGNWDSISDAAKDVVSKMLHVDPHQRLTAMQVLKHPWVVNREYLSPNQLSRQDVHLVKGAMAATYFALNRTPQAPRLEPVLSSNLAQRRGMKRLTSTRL
# Experimental: as §1
# [24] = target: T24, KIT (Homo sapiens, UniProt P10721)
# T24 construct: purchased Millipore, Inc. (KinaseProfiler service)
# T24 sequence (P10721 26-976): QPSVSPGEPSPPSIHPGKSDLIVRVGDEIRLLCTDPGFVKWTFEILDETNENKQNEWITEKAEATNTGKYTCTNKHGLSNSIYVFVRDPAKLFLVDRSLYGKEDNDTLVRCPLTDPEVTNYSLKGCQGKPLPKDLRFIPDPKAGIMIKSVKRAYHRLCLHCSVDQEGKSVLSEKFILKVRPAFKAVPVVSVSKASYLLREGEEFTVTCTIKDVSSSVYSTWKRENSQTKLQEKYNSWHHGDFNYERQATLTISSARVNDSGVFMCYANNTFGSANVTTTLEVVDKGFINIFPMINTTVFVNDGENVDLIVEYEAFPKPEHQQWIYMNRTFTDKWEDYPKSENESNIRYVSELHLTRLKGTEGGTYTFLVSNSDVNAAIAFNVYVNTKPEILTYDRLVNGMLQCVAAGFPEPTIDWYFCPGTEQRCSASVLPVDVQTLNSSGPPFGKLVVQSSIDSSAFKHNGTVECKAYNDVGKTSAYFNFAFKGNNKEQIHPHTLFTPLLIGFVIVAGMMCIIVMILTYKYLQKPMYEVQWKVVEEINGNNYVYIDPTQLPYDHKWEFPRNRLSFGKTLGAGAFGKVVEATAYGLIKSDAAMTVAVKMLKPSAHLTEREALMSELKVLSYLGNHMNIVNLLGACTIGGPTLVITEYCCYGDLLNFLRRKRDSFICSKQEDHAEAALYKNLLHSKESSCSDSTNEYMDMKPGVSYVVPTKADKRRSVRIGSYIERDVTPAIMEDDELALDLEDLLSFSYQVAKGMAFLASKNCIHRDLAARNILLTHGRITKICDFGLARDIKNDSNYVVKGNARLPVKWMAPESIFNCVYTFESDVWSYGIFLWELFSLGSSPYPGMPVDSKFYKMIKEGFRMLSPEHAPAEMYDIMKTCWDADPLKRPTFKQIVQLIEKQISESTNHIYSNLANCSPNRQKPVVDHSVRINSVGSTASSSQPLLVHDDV
# Experimental: as §1
# [25] = target: T25, PKD2 (Homo sapiens, UniProt Q9BZL6)
# T25 construct: purchased Millipore, Inc. (KinaseProfiler service)
# T25 sequence (Q9BZL6 whole entry): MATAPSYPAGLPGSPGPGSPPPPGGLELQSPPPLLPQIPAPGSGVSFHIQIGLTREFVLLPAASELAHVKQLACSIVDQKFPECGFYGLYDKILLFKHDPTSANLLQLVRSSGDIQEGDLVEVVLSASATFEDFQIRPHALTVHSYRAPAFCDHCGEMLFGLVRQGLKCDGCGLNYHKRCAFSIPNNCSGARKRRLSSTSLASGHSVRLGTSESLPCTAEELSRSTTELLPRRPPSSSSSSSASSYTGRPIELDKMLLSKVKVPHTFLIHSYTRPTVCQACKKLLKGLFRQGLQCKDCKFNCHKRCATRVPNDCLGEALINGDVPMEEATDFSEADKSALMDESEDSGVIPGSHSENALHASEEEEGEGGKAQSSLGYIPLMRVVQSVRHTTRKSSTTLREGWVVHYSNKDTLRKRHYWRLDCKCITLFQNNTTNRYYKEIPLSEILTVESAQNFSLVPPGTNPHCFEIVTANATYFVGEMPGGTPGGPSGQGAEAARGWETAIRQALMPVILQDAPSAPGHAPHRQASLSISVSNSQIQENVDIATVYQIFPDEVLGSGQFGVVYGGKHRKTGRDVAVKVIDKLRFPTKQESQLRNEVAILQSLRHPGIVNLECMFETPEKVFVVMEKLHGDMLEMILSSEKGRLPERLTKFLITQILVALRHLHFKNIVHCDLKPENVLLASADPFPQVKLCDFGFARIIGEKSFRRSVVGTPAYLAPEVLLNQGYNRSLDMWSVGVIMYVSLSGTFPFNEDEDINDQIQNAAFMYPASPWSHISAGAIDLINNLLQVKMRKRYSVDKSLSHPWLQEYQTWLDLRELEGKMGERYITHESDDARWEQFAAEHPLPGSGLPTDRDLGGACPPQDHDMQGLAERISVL
# Experimental: as §1
# [26] = target: T26, MINK (Homo sapiens, UniProt Q8N4C8)
# T26 construct: purchased Millipore, Inc. (KinaseProfiler service)
# T26 sequence (Q8N4C8 whole entry): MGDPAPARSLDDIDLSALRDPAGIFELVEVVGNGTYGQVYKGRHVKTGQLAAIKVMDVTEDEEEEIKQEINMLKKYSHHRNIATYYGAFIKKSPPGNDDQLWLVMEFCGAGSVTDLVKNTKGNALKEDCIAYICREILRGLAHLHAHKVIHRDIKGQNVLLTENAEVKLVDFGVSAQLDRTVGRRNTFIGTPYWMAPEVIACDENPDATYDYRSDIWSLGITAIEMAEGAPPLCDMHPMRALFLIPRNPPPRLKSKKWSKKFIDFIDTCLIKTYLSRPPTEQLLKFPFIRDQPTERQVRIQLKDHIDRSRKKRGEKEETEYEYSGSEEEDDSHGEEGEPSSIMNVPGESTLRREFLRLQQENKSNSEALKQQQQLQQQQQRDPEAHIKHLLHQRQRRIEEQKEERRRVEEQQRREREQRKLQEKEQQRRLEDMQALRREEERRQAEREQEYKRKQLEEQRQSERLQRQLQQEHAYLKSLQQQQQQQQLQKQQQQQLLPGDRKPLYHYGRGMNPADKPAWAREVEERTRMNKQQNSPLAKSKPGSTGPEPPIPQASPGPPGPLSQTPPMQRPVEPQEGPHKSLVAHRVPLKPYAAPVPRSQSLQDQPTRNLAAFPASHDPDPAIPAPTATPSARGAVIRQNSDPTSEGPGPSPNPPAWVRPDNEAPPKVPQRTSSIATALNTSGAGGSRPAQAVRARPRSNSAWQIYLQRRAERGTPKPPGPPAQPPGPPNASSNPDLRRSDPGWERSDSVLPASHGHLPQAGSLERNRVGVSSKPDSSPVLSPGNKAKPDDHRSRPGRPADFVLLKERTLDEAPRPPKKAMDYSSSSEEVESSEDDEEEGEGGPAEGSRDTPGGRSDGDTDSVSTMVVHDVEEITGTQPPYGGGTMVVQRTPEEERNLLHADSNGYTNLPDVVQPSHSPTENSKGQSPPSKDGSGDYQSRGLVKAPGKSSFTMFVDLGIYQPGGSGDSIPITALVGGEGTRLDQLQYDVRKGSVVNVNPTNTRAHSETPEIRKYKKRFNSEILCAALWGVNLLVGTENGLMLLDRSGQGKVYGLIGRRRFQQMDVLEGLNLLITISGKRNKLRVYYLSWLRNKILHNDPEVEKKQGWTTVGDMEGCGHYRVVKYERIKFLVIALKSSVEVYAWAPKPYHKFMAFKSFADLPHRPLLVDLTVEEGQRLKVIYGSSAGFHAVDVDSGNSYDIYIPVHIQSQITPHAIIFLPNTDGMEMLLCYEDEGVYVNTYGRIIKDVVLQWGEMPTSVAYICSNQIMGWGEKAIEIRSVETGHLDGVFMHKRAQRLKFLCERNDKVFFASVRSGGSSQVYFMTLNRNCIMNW
# Experimental: as §1
# [27] = target: T27, TNK2 (Homo sapiens, UniProt Q07912)
# T27 construct: purchased Millipore, Inc. (KinaseProfiler service)
# Experimental: as §1
# [28] = system: CK1_y
# Experimental: as §1
# [29] = target: T28, Bmx (Homo sapiens, UniProt P51813)
# T28 construct: purchased Millipore (KinaseProfiler service)
# T28 sequence (P51813 whole entry): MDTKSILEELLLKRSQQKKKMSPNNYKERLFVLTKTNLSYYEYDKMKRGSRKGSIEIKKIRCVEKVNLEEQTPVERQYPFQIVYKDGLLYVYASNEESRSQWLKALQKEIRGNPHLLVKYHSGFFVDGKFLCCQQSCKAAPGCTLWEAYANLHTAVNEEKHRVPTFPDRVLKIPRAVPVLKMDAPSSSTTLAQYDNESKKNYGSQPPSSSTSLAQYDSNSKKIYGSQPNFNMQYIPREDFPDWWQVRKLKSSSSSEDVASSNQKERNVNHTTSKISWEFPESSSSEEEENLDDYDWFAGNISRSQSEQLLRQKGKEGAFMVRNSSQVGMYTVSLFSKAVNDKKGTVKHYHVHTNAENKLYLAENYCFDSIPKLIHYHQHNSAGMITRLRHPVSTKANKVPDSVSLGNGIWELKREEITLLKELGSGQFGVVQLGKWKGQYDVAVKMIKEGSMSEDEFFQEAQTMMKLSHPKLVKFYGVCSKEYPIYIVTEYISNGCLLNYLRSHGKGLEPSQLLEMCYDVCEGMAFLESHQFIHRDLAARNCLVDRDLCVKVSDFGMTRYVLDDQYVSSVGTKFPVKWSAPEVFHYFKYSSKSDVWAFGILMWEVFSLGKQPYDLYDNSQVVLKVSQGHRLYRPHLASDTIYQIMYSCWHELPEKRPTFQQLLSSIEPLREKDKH
# Experimental: as §1
# [30] = target: T29, MLK1 (Homo sapiens, UniProt P80192)
# T29 construct: purchased Millipore, Inc. (KinaseProfiler service)
# Experimental: as §1
# [31] = target: T30, IKKalpha (Homo sapiens, UniProt O15111)
# T30 construct: purchased Millipore, Inc. (KinaseProfiler service)
# Experimental: as §1
# [32] = target: T31, AKT3 (Homo sapiens, UniProt Q9Y243)
# T31 construct: purchased Millipore (KinaseProfiler service)
# Experimental: as §1
# [33] = target: T32, FGFR2 (Homo sapiens, UniProt P21802)
# T32 construct: purchased Millipore, Inc. (KinaseProfiler service)
# Experimental: as §1
# [34] = target: T33, PrKX (Homo sapiens, UniProt P51817)
# T33 construct: purchased Millipore, Inc. (KinaseProfiler service)
# Experimental: as §1
# [35] = target: T34, SGK1 (Homo sapiens, UniProt O00141)
# T34 construct: purchased Millipore, Inc. (KinaseProfiler service)
# Experimental: as §1
# [36] = target: T35, Haspin (Homo sapiens, UniProt Q8TF76)
# T35 construct: purchased Millipore, Inc. (KinaseProfiler service)
# Experimental: as §1
# [37] = target: T36, CAMK1d (Homo sapiens, UniProt Q8IU85)
# T36 construct: purchased Millipore (KinaseProfiler service)
# Experimental: as §1
# [38] = target: T37, Pim-1 (Homo sapiens, UniProt P11309)
# T37 construct: purchased Millipore, Inc. (KinaseProfiler service)
# Experimental: as §1
# [39] = target: T38, Fes (Homo sapiens, UniProt P07332)
# T38 construct: purchased Millipore, Inc. (KinaseProfiler service)
# Experimental: as §1
# [40] = target: T39, Rsk4 (Homo sapiens, UniProt Q9UK32)
# T39 construct: purchased Millipore, Inc. (KinaseProfiler service)
# Experimental: as §1
# [41] = target: T40, CLK3 (Homo sapiens, UniProt P49761)
# T40 construct: purchased Millipore, Inc. (KinaseProfiler service)
# Experimental: as §1
smiles,measurement,setting,value
"COCc1ccc(C2CCC2)c(CNC(=O)Nc2c(C)c(-c3cnc(C)nc3)nn2-c2ccccc2)c1 [Example 10, 1-(2-cyclobutyl-5-(methoxymethyl)benzyl)-3-(4-methyl-3-(2-methylpyrimidin-5-yl)-1-phenyl-1H-pyrazol-5-yl)urea]",Avg POC ZAP-70,[1],120.5 POC
same,Avg POC PDK1,[2],120.5 POC
same,Avg POC FGFR4,[3],118 POC
same,Avg POC MKK4_m,[4],125.5 POC
same,Avg POC BrSK1,[5],86.5 POC
same,Avg POC MAP4K2,[6],95.5 POC
same,Avg POC AKT2,[7],142 POC
same,Avg POC CAMK2d,[8],126.5 POC
same,Avg POC CDK2/cyclinE,[9],93 POC
same,Avg POC CDK5/p25,[10],107.5 POC
same,Avg POC MST1,[11],87.5 POC
same,Avg POC IRR,[12],96 POC
same,Avg POC SRPK2,[13],114 POC
same,Avg POC MAPKAP-K3,[14],98.5 POC
same,Avg POC EphB3,[15],100 POC
same,Avg POC CK1gamma2,[16],69.5 POC
same,Avg POC SRC,[17],96 POC
same,Avg POC TSSK2,[18],90 POC
same,Avg POC MARK1,[19],97 POC
same,Avg POC PKCalpha,[20],100.5 POC
same,Avg POC EphA5,[21],114 POC
same,Avg POC CDK3/cyclinE,[22],90.5 POC
same,Avg POC Rsk3,[23],101 POC
same,Avg POC KIT,[24],102 POC
same,Avg POC PKD2,[25],106 POC
same,Avg POC MINK,[26],139.5 POC
same,Avg POC TNK2,[27],114.5 POC
same,Avg POC CK1_y,[28],97 POC
same,Avg POC Bmx,[29],100 POC
same,Avg POC MLK1,[30],100.5 POC
same,Avg POC IKKalpha,[31],112.5 POC
same,Avg POC AKT3,[32],102.5 POC
same,Avg POC FGFR2,[33],103.5 POC
same,Avg POC PrKX,[34],73.5 POC
same,Avg POC SGK1,[35],96 POC
same,Avg POC Haspin,[36],80.5 POC
same,Avg POC CAMK1d,[37],81 POC
same,Avg POC Pim-1,[38],101.5 POC
same,Avg POC Fes,[39],90 POC
same,Avg POC Rsk4,[40],87 POC
same,Avg POC CLK3,[41],104.5 POC
"COCc1ccc(C(F)(F)F)c(CNC(=O)Nc2c(C)c(-c3cnn(C)c3)nn2-c2ccccc2)c1 [Example 33, 1-(1′,4-dimethyl-1-phenyl-1H,1′H-[3,4′-bipyrazol]-5-yl)-3-(5-(methoxymethyl)-2-(trifluoromethyl)benzyl)urea]",Avg POC ZAP-70,[1],149 POC
same,Avg POC PDK1,[2],126.5 POC
same,Avg POC FGFR4,[3],201.5 POC
same,Avg POC MKK4_m,[4],137 POC
same,Avg POC BrSK1,[5],119 POC
same,Avg POC MAP4K2,[6],115.5 POC
same,Avg POC AKT2,[7],199 POC
same,Avg POC CAMK2d,[8],118 POC
same,Avg POC CDK2/cyclinE,[9],115.5 POC
same,Avg POC CDK5/p25,[10],100.5 POC
same,Avg POC MST1,[11],87.5 POC
same,Avg POC IRR,[12],96.5 POC
same,Avg POC SRPK2,[13],112 POC
same,Avg POC MAPKAP-K3,[14],119.5 POC
same,Avg POC EphB3,[15],69 POC
same,Avg POC CK1gamma2,[16],113.5 POC
same,Avg POC SRC,[17],101 POC
same,Avg POC TSSK2,[18],131 POC
same,Avg POC MARK1,[19],109.5 POC
same,Avg POC PKCalpha,[20],104.5 POC
same,Avg POC EphA5,[21],123 POC
same,Avg POC CDK3/cyclinE,[22],98.5 POC
same,Avg POC Rsk3,[23],103 POC
same,Avg POC KIT,[24],94 POC
same,Avg POC PKD2,[25],106 POC
same,Avg POC MINK,[26],100 POC
same,Avg POC TNK2,[27],119.5 POC
same,Avg POC CK1_y,[28],97.5 POC
same,Avg POC Bmx,[29],127.5 POC
same,Avg POC MLK1,[30],105.5 POC
same,Avg POC IKKalpha,[31],137.5 POC
same,Avg POC AKT3,[32],124 POC
same,Avg POC FGFR2,[33],109.5 POC
same,Avg POC PrKX,[34],146.5 POC
same,Avg POC SGK1,[35],279 POC
same,Avg POC Haspin,[36],109 POC
same,Avg POC CAMK1d,[37],111.5 POC
same,Avg POC Pim-1,[38],138 POC
same,Avg POC Fes,[39],109 POC
same,Avg POC Rsk4,[40],95 POC
same,Avg POC CLK3,[41],102 POC
